Assay results as given in US12629419B2, “Prevention or mitigation of T-cell engaging agent-related adverse effects” (Hoffmann-La Roche Inc., priority 2020, dated 2026).
Entries after “also recorded” stand apart in the source; their conditions may differ.

How the values were obtained:
CD4+ and CD8+ T cells [1] = test: T cell activation (CD25, CD69 by flow cytometry) in CEA-TCB killing assay; format: cell-based; conditions: 10 nM CEA-TCB; for T cell activation triggered by the TCB: summary statement, also for target cell killing; for CD25 and CD69 expression on CD4+ and CD8+ T cells (T cell activation): 66 h, fixed compound concentrations; for expression of CD69 on CD8+ T cells / expression of CD25 on CD4+ T cells / expression of CD69 on CD4+ T cells / expression of CD25 on CD8+ T cells: 72 h; for expression of CD25 on CD4+ T cells / expression of CD69 on CD4+ T cells / expression of CD25 on CD8+ T cells: concentrations above 25 nM; for expression of CD25 on CD4+ T cells / expression of CD69 on CD4+ T cells: reduced from ~45%; for expression of CD25 on CD8+ T cells: reduced from ~75% (everolimus: ~70%)
WSU DLCL2 tumor cells [2] = test: killing assay with PBMCs, CTV labelled WSU DLCL2 tumor cells and CD20-TCB; format: cell-based; conditions: 24 h; for CD20-TCB-mediated target cell killing: 1 nM CD20-TCB, inhibitor 0 nM to 1000 nM; for killing of B cells: WSU cells with PBMCs, CD20-TCB, fixed compound concentrations
Protocol: FIG. 13. In vitro killing assay set-up.
FIG. 14. […] At 24 hours, the tumor cells and PBMCs from technical replicates were pooled and stained with a LIVE/DEAD™ Near-IR dead cell dye to allow exclusion of dead CTV labelled WSU DLCL2 tumor cells by flow cytometry. Mean of n=3 donors+/−SEM.
(§1) A similar experiment was conducted with another TCB. WSU DLCL2 cells were co-cultured together with PBMCs in the presence of 1 nM CD20-TCB (SEQ ID NOs 4-11, 24-35), and escalating sirolimus doses ranging from 0 nM to 1000 nM (FIG. 13).
(§2) A similar experiment was conducted with another TCB. […] The killing of B cells was measured as a readout for the impact of the various compounds on TCB efficacy at 24 h (FIGS. 27 and 28). […] Lastly, the levels of cytokines (TNF-α, IFN-γ, IL-2, IL-6, IL-4, IL-10, GM-CSF and IL-1β) were analyzed by Luminex at assay endpoint to assess the impact of the different treatments on TCB-induced cytokine release (FIGS. 32 and 33).
(§3) At 24 hours, tumor cell killing was measured by flow cytometry by exclusion of dead CTV cells. The supernatants were collected and cytokines were measured by Luminex.

CD4+ and CD8+ T cells [3] = test: T cell activation (CD25, CD69) in CD20-TCB killing assay; format: cell-based; conditions: 1 nM CD20-TCB; 24 h; inhibitor 0 nM to 1000 nM
Protocol: as §1
(§4) A similar experiment was conducted with CD20-TCB.
(§5) A similar experiment was conducted with CD20-TCB. WSU DLCL2 cells were co-cultured together with PBMCs in the presence of 1 nM CD20-TCB, and escalating everolimus doses ranging from 0 nM to 1000 nM (FIG. 13).
(§6) A similar experiment was conducted with CD20-TCB. WSU DLCL2 cells were co-cultured together with PBMCs in the presence of 1 nM CD20-TCB, and escalating ruxolitinib doses ranging from 0 nM to 1000 nM (FIG. 13).
as §2, §3

[4] = system: CD20-TCB-induced cytokine release; test: CD20-TCB-induced cytokine release (Luminex); format: cell-based; conditions: 24 h; for cytokine release induced by CD20-TCB (IFN-γ, IL-2, TNF-α, GM-CSF and IL-6): 1 nM CD20-TCB, concentrations above 12.5 nM; for CD20-TCB-induced cytokine release: escalating CD20-TCB / 1 nM CD20-TCB, fixed compound concentrations
Protocol: A similar experiment was conducted with another TCB.
as §4, §5, §6, §2, §3

WSU DLCL2 tumor cells [5] = test: CD20-TCB killing assay, inhibitors added after 18 hours of activation: tumor cell killing; format: cell-based; conditions: 100 nM added at 18 h
Protocol: (§7) FIG. 34. In vitro killing assay set-up. Cell Trace™ Violet (CTV) labelled WSU DLCL2 tumor cells were co-cultured together with PBMCs [E:T=200′000:20′000] and stimulated with CD20-TCB for 18 h.
(§8) In this assay, CTV labelled WSU DLCL2 tumors cells were co-cultured with PBMCs in the presence of escalating doses of CD20-TCB for 18 hours.

CD4+ and CD8+ T cells [6] = test: CD20-TCB killing assay, inhibitors added after 18 hours: T cell activation; format: cell-based; conditions: 100 nM added at 18 h
Protocol: as §7, §8

[7] = system: CD20-TCB-induced cytokine release; test: CD20-TCB killing assay, inhibitors added after 18 hours: cytokine release from pre-activated effector cells; format: cell-based; conditions: 100 nM added at 18 h; for further release of IFN-γ, IL-2, IL-6: 1 nM CD20-TCB, three donors; for IL-2, IFN-γ, IL-6 and GM-CSF release / release of TNF-α and IL-1β: between 18 hours and 44 hours
Protocol: as §7, §8

[8] = system: A375 NucLight Red (NLR) target-cells; test: killing assay with PBMCs, A375 NLR target cells and MAGEA4-TCB (Incucyte); format: cell-based; conditions: 8 nM MAGEA4-TCB; escalating inhibitor concentrations
[9] = system: MAGEA4-TCB-induced cytokine release; test: MAGEA4-TCB-induced cytokine release; format: cell-based; conditions: 8 nM MAGEA4-TCB; 72 hours; with increasing concentrations
Protocol: FIG. 45. Effect of escalating concentrations (c) of ruxolitinib on IFN-γ (A), IL-2 (B), TNF-α (C), GM-CSF (D), IL-6 (E), IL-1β (F), IL-8 (G), MCP-1 (H) and IL-10 (I) levels induced by 8 nM MAGEA4-TCB. At 72 hours, the supernatants were collected and cytokines were analyzed by cytometric bead array (CBA). Mean of technical replicates+/−SD for 1 representative donor.
FIG. 47. […] At 72 hours, the supernatants were collected and cytokines were analyzed by CBA. Mean of technical replicates+/−SD for 1 representative donor.
The effect of ruxolitinib on TCB-induced tumor cell killing and cytokine release was assessed using an additional TCB, the MAGEA4-TCB (SEQ ID NOs 37-56).

CD19+ B cells = test: CD20-TCB-induced B cell depletion in non-tumor bearing humanized NSG mice; format: in vivo; conditions: 48 and 72 hours; 0.15 mg/kg CD20-TCB; p.o. 2, 5, 10 mg/kg sirolimus, 10 mg/kg everolimus, 10 mg/kg temsirolimus, ruxolitinib
Protocol: FIG. 95. In vivo experiment timelines and dosing schedule.
FIG. 96. […] The proportion of CD19+ B cells among human CD45+(huCD45) cells was measured by flow cytometry in the blood collected 48 hrs and 72 hrs post-treatment with CD20-TCB. Mean of n=4 mice or n=3 mice (everolimus group)+/−SEM. The statistical comparison to the vehicle group is summarized table (C) where the p values were calculated by Kruskal-Wallis test.
Different doses of mTOR, JAK and Src kinase inhibitors were tested to determine the optimal dose that reduces CD20-TCB-induced cytokine release while minimally interfering with B cell depletion. […] The doses of 30 and 60 mg/kg were tested for ruxolitinib and the doses of 10 and 50 mg/kg were tested for dasatinib. To reproduce the clinical route of administration, the different kinase inhibitors were given orally (p.o.) once or twice per day as depicted in FIG. 95. Mice were bled 4 hours and 24 hours after the treatment with CD20-TCB (FIG. 95) to collect serum for cytokine level measurements by Luminex. Additionally, blood was collected 48 hours and 72 hours (termination) post treatment with CD20-TCB to measure the percentage of CD19+ B cells among human CD45+ cells by flow cytometry (FIG. 95).

[10] = system: CEA-TCB-induced cytokine release; test: CEA-TCB-induced cytokine release (Luminex, supernatants); conditions: 10 nM CEA-TCB; for levels of IFN-γ, TNF-α, IL-2, IL-6, MCP-1, IL-8, IL-10, IL-4 and GM-CSF: assay endpoint 72 h (ruxolitinib 69 h), in comparison to samples without inhibitor; for CEA-TCB induced cytokine release: even at the lowest doses tested; for CEA-TCB-induced cytokine release: 66 h, fixed compound concentrations
Protocol: The levels of cytokines were measured by Luminex in the supernatants of the assay to determine the impact of the different compounds on CEA-TCB-induced cytokine release.

[11] = 1 nM CD20-TCB, three donors, between 18 hours and 44 hours
[12] = measured at 44 hours, escalating CD20-TCB

Row | Compound | T cell activation triggered by the TCB (CD4+ and CD8+ T cells [1]) | CD25 and CD69 expression on CD4+ and CD8+ T cells (T cell activation) (CD4+ and CD8+ T cells [1]) | expression of CD69 on CD8+ T cells (CD4+ and CD8+ T cells [1]) | expression of CD25 on CD4+ T cells (CD4+ and CD8+ T cells [1]) [%] | expression of CD69 on CD4+ T cells (CD4+ and CD8+ T cells [1]) [%] | expression of CD25 on CD8+ T cells (CD4+ and CD8+ T cells [1]) [%] | CD20-TCB-mediated target cell killing (WSU DLCL2 tumor cells [2]) | killing of B cells (WSU DLCL2 tumor cells [2]) | T cell activation (CD25 and CD69 on CD4+ and CD8+ T cells) (CD4+ and CD8+ T cells [3]) | cytokine release induced by CD20-TCB (IFN-γ, IL-2, TNF-α, GM-CSF and IL-6) [4] | CD20-TCB-induced cytokine release [4] | CTV labelled WSU DLCL2 tumor cell killing (WSU DLCL2 tumor cells [5]; [11]) | CTV labelled WSU DLCL2 tumor cell killing (WSU DLCL2 tumor cells [5]; [12]) | T cell activation (CD4+ and CD8+ T cells [6]; [11]) | T cell activation (CD4+ and CD8+ T cells [6]; [12]) | further release of IFN-γ, IL-2, IL-6 [7] | IL-2, IFN-γ, IL-6 and GM-CSF release [7] | release of TNF-α and IL-1β [7] | MAGEA4-TCB induced tumor cell killing [8] | levels of IFN-γ, IL-2, TNF-α, IL-8, IL-6, MCP-1 and IL-10 [9] | also measured
1 | CO[C@H]1C[C@@H]2CC[C@@H](C)[C@@](O)(O2)C(=O)C(=O)N2CCCC[C@H]2C(=O)O[C@H]([C@H](C)C[C@@H]2CC[C@@H](OCCO)[C@H](OC)C2)CC(=O)[C@H](C)/C=C(\C)[C@@H](O)[C@@H](OC)C(=O)[C@H](C)C[C@H](C)/C=C/C=C/C=C/1C [everolimus, Everolimus] | does not fully inhibit | milder impact | did not affect | ~15 | ~25 | 40 | did not fully inhibit | did neither prevent | did not fully inhibit | strongly reduced | comparable effect to dexamethasone and dasatinib | did not impact further | did not impact | did not impact further | did not impact | prevented further release | stopped | to a lower extent | did not prevent | reduced | B cell depletion induced by CD20-TCB (percentage of CD19+ B cells among human CD45+ cells in peripheral blood) (CD19+ B cells): did not interfere; also recorded: minimally interfered; levels of IFN-γ, TNF-α, IL-2, IL-6, MCP-1, IL-8, IL-10, IL-4 and GM-CSF [10]: very low; CEA-TCB induced cytokine release [10]: strongly downregulated; also recorded: strongly reduces; CEA-TCB-induced cytokine release [10]: inhibited; also recorded: comparable to dexamethasone and dasatinib
2 | CO[C@H]1C[C@@H]2CC[C@@H](C)[C@@](O)(O2)C(=O)C(=O)N2CCCC[C@H]2C(=O)O[C@H]([C@H](C)C[C@@H]2CC[C@@H](O)[C@H](OC)C2)CC(=O)[C@H](C)/C=C(\C)[C@@H](O)[C@@H](OC)C(=O)[C@H](C)C[C@H](C)/C=C/C=C/C=C/1C [sirolimus, Sirolimus] | does not fully inhibit | milder impact | did not affect | ~15 | ~25 | 40 | did not fully inhibit | did neither prevent | did not fully inhibit | strongly reduced | comparable effect to dexamethasone and dasatinib | did not impact further | did not impact | did not impact further | did not impact | prevented further release | stopped | to a lower extent | did not prevent | reduced | B cell depletion induced by CD20-TCB (percentage of CD19+ B cells among human CD45+ cells in peripheral blood) (CD19+ B cells): did not interfere; also recorded: minimally interfered; levels of IFN-γ, TNF-α, IL-2, IL-6, MCP-1, IL-8, IL-10, IL-4 and GM-CSF [10]: very low; CEA-TCB induced cytokine release [10]: strongly downregulated; also recorded: strongly reduces; CEA-TCB-induced cytokine release [10]: inhibited; also recorded: comparable to dexamethasone and dasatinib
